Measured values reported in patent US8236354B1, “Use of immunomodulators for the treatment of cancer” (ZOR Pharmaceuticals, LLC, priority 2012, dated 2012).

Test system: advanced (unresectable or metastatic) pancreatic adenocarcinoma
Test: Phase 3 double-blind, randomized, placebo-controlled 3-stage trial: survival and time to symptom progression
Format: in vivo, human
Conditions: for Median survival time from entry into study Stage 3 to death from any cause: Intention to Treat, Stage 3 test product plus 5-FU
Protocol: This was a double-blind, multicenter, randomized, 2-arm, parallel group, 3-stage trial. Median survival was the primary end-point calculated from Kaplan-Meier plots of survival of the Intention to Treat data set.
The blood pharmacokinetic profiles of gemcitabine and VIRULIZIN® were assessed by an independent (unblinded) pharmacokinetics assessor. Stage 1 was performed at selected sites. Immune stimulation assays were also to be performed in these patients.
The decision to discontinue patients from Stage 2 and move them into Stage 3 and to continue or discontinue study treatment was at the discretion of the investigator.
However, if the investigator believed further chemotherapy was not in the best interest of the patient (based on hematological profile, symptom progression or no evidence of clinical benefit), the patient continued to receive best supportive care, with or without continued injections of VIRULIZIN® or placebo. The first 18 patients entering Stage 3 and receiving VIRULIZIN® or placebo plus intravenous infusions of 5-FU were to have blood samples taken to assess the pre- and post-dose plasma concentrations of 5-FU.
Male or female patients, aged 18 years or older, with advanced (unresectable or metastatic) pancreatic adenocarcinoma (tumor staging definition—tumor, lymph nodes, metastasis [TNM] stages II, III or IV) who had not received previous systemic chemotherapy, who had Eastern Cooperative Oncology Group (ECOG) Score 0, 1 or 2, and life expectancy greater than or equal to 12 weeks were included in the study.
VIRULIZIN® or placebo was administered as intramuscular injections of 3 mL with dosing 3 times weekly (Monday, Wednesday, Friday) in Stages 1, 2 and 3.
Following pain stabilization screening, all randomized patients in Stages 1 and 2 received 30-minute intravenous infusions of gemcitabine at a dose of 1 g/m2 weekly for the first 7 weeks, followed by a week of rest. Subsequent cycles consisted of 28-day cycles with gemcitabine dosing on days 1, 8 and 15. Guidelines for dose reduction in case of toxicity were provided from the Official Product Prescribing Guidelines. Dosing continued until intolerance to gemcitabine developed, or there was symptom progression, or no evidence of clinical benefit. […] The patient's physician made the decision concerning 5-FU chemotherapy or best supportive care.
Efficacy was evaluated based upon survival time, defined as the time from Baseline/Treatment Day 1 to the time of death from any cause. Time to progression of symptoms, consisting of: time to increase in pain (with consideration of analgesic consumption), time to deterioration in ECOG score, and time to weight loss.

[1] = ECOG 0 or 1, treated in Stage 3, of 25 (VIRULIZIN plus 5-FU) / of 16 (placebo plus 5-FU) patients

O=c1[nH]cc(F)c(=O)[nH]1 [Placebo plus 5-FU, 5-fluorouracil]
number of patients alive (censored) at the end of the study data collection period [1]: None | percent of patients alive (censored) at the end of the study data collection period [1]: 0% | Median survival time from entry into study Stage 3 to death from any cause (ECOG 0 or 1): 2.94 months | Median survival time from entry into study Stage 3 to death from any cause (ECOG 2): 3.42 months | Median survival time from entry into study Stage 3 to death from any cause (ECOG 2, listed as placebo plus 5-FU): 3.43 months | Median survival time from entry into study Stage 3 to death from any cause (Overall): 3.22 months
